Earlier results in patent publication US6929797B2, “Targeted therapeutic delivery of vitamin D compounds” (Bone Care International, Inc., priority 1997, dated 2005).
Read-outs that look alike come from different tables or passages of the source.

Key:
[1] = 0.5 μg/day, postmenopausal women
[2] = not given; remark: listed apart in the source

| Structure (SMILES) | intestinal calcium absorption and calcium balance [1] | effects on bone mass or mineral content (dosage levels below 0.5 μg/day) | toxicity (hypercalcemia and hypercalciuria) ([2]; above 0.5 μg/day) | efficacy (bone mass or bone mineral content) (1 μg/day, Japan, population with low calcium intake) | bone mass (Two μg/day, patients exhibiting senile osteoporosis) | patients in whom toxicity occurs ([2]; 1 μg/day) | patients in whom toxicity occurs ([2]; 2 μg/day) |
| --- | --- | --- | --- | --- | --- | --- | --- |
| C=C1/C(=C\C=C2/CCC[C@]3(C)[C@@H]([C@H](C)CCCC(C)(C)O)CC[C@@H]23)C[C@@H](O)C[C@@H]1O [1α,25-dihydroxyvitamin D3] | improved | no effects | frequently resulted in toxicity |  |  |  |  |
| C=C1/C(=C\C=C2/CCC[C@]3(C)[C@@H]([C@H](C)CCCC(C)C)CC[C@@H]23)C[C@@H](O)C[C@@H]1O [1α-hydroxyvitamin D3] |  |  |  | efficacy is found | efficacy in increasing bone mass | approximately 20% | approximately 67% |
